According to publication PMC4917279 (Journal of Medicinal Chemistry, 2016):
Entries after “also recorded” stand apart in the source; their conditions may differ.

Tests used:
[1] = target: T1, CDK7 (Homo sapiens, UniProt P50613); experiment: KINOMEscan; format: binding; settings: read-out: %Ctrl @ 1000 nM
T1 construct: purchased DiscoveRx KINOMEscan

[2] = target: T2, JNK2 (Homo sapiens, UniProt P45984); experiment: KINOMEscan; format: binding; settings: read-out: %Ctrl @ 1000 nM
T2 construct: purchased DiscoveRx KINOMEscan

[3] = target: T3, CAMK2B (Homo sapiens, UniProt Q13554); experiment: KINOMEscan; format: binding; settings: read-out: %Ctrl @ 1000 nM
T3 construct: purchased DiscoveRx KINOMEscan

[4] = target: T4, MERTK (Homo sapiens, UniProt Q12866); experiment: KINOMEscan; format: binding; settings: read-out: %Ctrl @ 1000 nM
T4 construct: purchased DiscoveRx KINOMEscan

[5] = target: T5, ABL1(T315I)-nonphosphorylated (Homo sapiens, UniProt P00519, T315I); experiment: KINOMEscan; format: binding; settings: read-out: %Ctrl @ 1000 nM
T5 construct: purchased DiscoveRx (KINOMEscan service)

[6] = target: T6, CSF1R (Homo sapiens, UniProt P07333); experiment: KINOMEscan; format: binding; settings: read-out: %Ctrl @ 1000 nM
T6 construct: purchased DiscoveRx KINOMEscan

[7] = target: T7, GRK1 (Homo sapiens, UniProt Q15835); experiment: KINOMEscan; format: binding; settings: read-out: %Ctrl @ 1000 nM
T7 construct: purchased DiscoveRx KINOMEscan

[8] = target: T8, GSK3B (Homo sapiens, UniProt P49841); experiment: KINOMEscan; format: binding; settings: read-out: %Ctrl @ 1000 nM
T8 construct: purchased DiscoveRx KINOMEscan

[9] = target: T9, IKK-alpha (Homo sapiens, UniProt O15111); experiment: KINOMEscan; format: binding; settings: read-out: %Ctrl @ 1000 nM
T9 construct: purchased DiscoveRx KINOMEscan

[10] = target: T10, PIM3 (Homo sapiens, UniProt Q86V86); experiment: KINOMEscan; format: binding; settings: read-out: %Ctrl @ 1000 nM
T10 construct: purchased DiscoveRx KINOMEscan

[11] = target: T11, CSNK2A2 (Homo sapiens, UniProt P19784); experiment: KINOMEscan; format: binding; settings: read-out: %Ctrl @ 1000 nM
T11 construct: purchased DiscoveRx KINOMEscan

[12] = target: T12, RSK3(Kin.Dom.2-C-terminal) (Homo sapiens, UniProt Q15349); experiment: KINOMEscan; format: binding; settings: read-out: %Ctrl @ 1000 nM
T12 construct: RSK3(Kin.Dom.2-C-terminal); purchased DiscoveRx KINOMEscan

[13] = target: T13, RIPK1 (Homo sapiens, UniProt Q13546); experiment: KINOMEscan; format: binding; settings: read-out: %Ctrl @ 1000 nM
T13 construct: purchased DiscoveRx KINOMEscan

[14] = target: T14, MRCKB (Homo sapiens, UniProt Q9Y5S2); experiment: KINOMEscan; format: binding; settings: read-out: %Ctrl @ 1000 nM
T14 construct: purchased DiscoveRx KINOMEscan

[15] = target: T15, DRAK1 (Homo sapiens, UniProt Q9UEE5); experiment: KINOMEscan; format: binding; settings: read-out: %Ctrl @ 1000 nM
T15 construct: purchased DiscoveRx KINOMEscan

[16] = target: T16, ARK5 (Homo sapiens, UniProt O60285); experiment: KINOMEscan; format: binding; settings: read-out: %Ctrl @ 1000 nM
T16 construct: purchased DiscoveRx KINOMEscan

[17] = target: T17, NEK11 (Homo sapiens, UniProt Q8NG66); experiment: KINOMEscan; format: binding; settings: read-out: %Ctrl @ 1000 nM
T17 construct: purchased DiscoveRx KINOMEscan

[18] = target: T18, NEK6 (Homo sapiens, UniProt Q9HC98); experiment: KINOMEscan; format: binding; settings: read-out: %Ctrl @ 1000 nM
T18 construct: purchased DiscoveRx KINOMEscan

[19] = target: T19, MAP4K3 (Homo sapiens, UniProt Q8IVH8); experiment: KINOMEscan; format: binding; settings: read-out: %Ctrl @ 1000 nM
T19 construct: purchased DiscoveRx KINOMEscan

[20] = target: T20, HIPK3 (Homo sapiens, UniProt Q9H422); experiment: KINOMEscan; format: binding; settings: read-out: %Ctrl @ 1000 nM
T20 construct: purchased DiscoveRx KINOMEscan

[21] = target: T21, PAK3 (Homo sapiens, UniProt O75914); experiment: KINOMEscan; format: binding; settings: read-out: %Ctrl @ 1000 nM
T21 construct: purchased DiscoveRx KINOMEscan

[22] = target: T22, QSK (Homo sapiens, UniProt Q9Y2K2); experiment: KINOMEscan; format: binding; settings: read-out: %Ctrl @ 1000 nM
T22 construct: purchased DiscoveRx KINOMEscan

[23] = target: T23, NEK10 (Homo sapiens, UniProt Q6ZWH5); experiment: KINOMEscan; format: binding; settings: read-out: %Ctrl @ 1000 nM
T23 construct: purchased DiscoveRx KINOMEscan

[24] = target: T24, EGFR(L747-E749del, A750P) (Homo sapiens, UniProt P00533, A750P/DEL747-749); experiment: KINOMEscan; format: binding; settings: read-out: %Ctrl @ 1000 nM
T24 construct: purchased DiscoveRx KINOMEscan

[25] = target: T25, CAMKK1 (Homo sapiens, UniProt Q8N5S9); experiment: KINOMEscan; format: binding; settings: read-out: %Ctrl @ 1000 nM
T25 construct: purchased DiscoveRx KINOMEscan

[26] = target: T26, RSK4(Kin.Dom.2-C-terminal) (Homo sapiens, UniProt Q9UK32); experiment: KINOMEscan; format: binding; settings: read-out: %Ctrl @ 1000 nM
T26 construct: RSK4(Kin.Dom.2-C-terminal); purchased DiscoveRx KINOMEscan

[27] = target: SMYD2 (Homo sapiens, UniProt Q9NRG4); experiment: AHNAK methylation Western blot in MDA-MB231 cells overexpressing SMYD2; format: cell-based; set-up: expressed in transfected cells
[28] = target: T27, ACVR2B (Homo sapiens, UniProt Q13705); experiment: KINOMEscan; format: binding; settings: read-out: %Ctrl @ 1000 nM
T27 construct: purchased DiscoveRx

[29] = target: T28, EGFR(L861Q) (Homo sapiens, UniProt P00533, L861Q); experiment: KINOMEscan; format: binding; settings: read-out: %Ctrl @ 1000 nM
T28 construct: purchased DiscoveRx KINOMEscan

[30] = target: T29, JAK2(JH1domain-catalytic) (Homo sapiens, UniProt O60674); experiment: KINOMEscan; format: binding; settings: read-out: %Ctrl @ 1000 nM
T29 construct: JAK2(JH1domain-catalytic); purchased DiscoveRx KINOMEscan

[31] = target: T30, PFTAIRE2 (Homo sapiens, UniProt Q96Q40); experiment: KINOMEscan; format: binding; settings: read-out: %Ctrl @ 1000 nM
T30 construct: purchased DiscoveRx KINOMEscan

[32] = target: T31, TIE1 (Homo sapiens, UniProt P35590); experiment: KINOMEscan; format: binding; settings: read-out: %Ctrl @ 1000 nM
T31 construct: purchased DiscoveRx KINOMEscan

[33] = target: T32, FGFR3(G697C) (Homo sapiens, UniProt P22607, G697C); experiment: KINOMEscan; format: binding; settings: read-out: %Ctrl @ 1000 nM
T32 construct: purchased DiscoveRx KINOMEscan

[34] = target: T33, NEK7 (Homo sapiens, UniProt Q8TDX7); experiment: KINOMEscan; format: binding; settings: read-out: %Ctrl @ 1000 nM
T33 construct: purchased DiscoveRx KINOMEscan

[35] = target: T34, ABL2 (Homo sapiens, UniProt P42684); experiment: KINOMEscan; format: binding; settings: read-out: %Ctrl @ 1000 nM
T34 construct: purchased DiscoveRx

[36] = target: T35, ABL1(Q252H)-nonphosphorylated (Homo sapiens, UniProt P00519, Q252H); experiment: KINOMEscan; format: binding; settings: read-out: %Ctrl @ 1000 nM
T35 construct: purchased DiscoveRx (KINOMEscan service)

[37] = target: T36, IGF1R (Homo sapiens, UniProt P08069); experiment: KINOMEscan; format: binding; settings: read-out: %Ctrl @ 1000 nM
T36 construct: purchased DiscoveRx KINOMEscan

[38] = target: T37, PRKD2 (Homo sapiens, UniProt Q9BZL6); experiment: KINOMEscan; format: binding; settings: read-out: %Ctrl @ 1000 nM
T37 construct: purchased DiscoveRx KINOMEscan

[39] = target: T38, AMPK-alpha2 (Homo sapiens, UniProt P54646); experiment: KINOMEscan; format: binding; settings: read-out: %Ctrl @ 1000 nM
T38 construct: purchased DiscoveRx KINOMEscan

[40] = target: T39, PIM1 (Homo sapiens, UniProt P11309); experiment: KINOMEscan; format: binding; settings: read-out: %Ctrl @ 1000 nM
T39 construct: purchased DiscoveRx KINOMEscan

[41] = target: T40, KIT(V559D) (Homo sapiens, UniProt P10721, V559D); experiment: KINOMEscan; format: binding; settings: read-out: %Ctrl @ 1000 nM
T40 construct: purchased DiscoveRx KINOMEscan
T40 sequence (P10721 26-976 V559D): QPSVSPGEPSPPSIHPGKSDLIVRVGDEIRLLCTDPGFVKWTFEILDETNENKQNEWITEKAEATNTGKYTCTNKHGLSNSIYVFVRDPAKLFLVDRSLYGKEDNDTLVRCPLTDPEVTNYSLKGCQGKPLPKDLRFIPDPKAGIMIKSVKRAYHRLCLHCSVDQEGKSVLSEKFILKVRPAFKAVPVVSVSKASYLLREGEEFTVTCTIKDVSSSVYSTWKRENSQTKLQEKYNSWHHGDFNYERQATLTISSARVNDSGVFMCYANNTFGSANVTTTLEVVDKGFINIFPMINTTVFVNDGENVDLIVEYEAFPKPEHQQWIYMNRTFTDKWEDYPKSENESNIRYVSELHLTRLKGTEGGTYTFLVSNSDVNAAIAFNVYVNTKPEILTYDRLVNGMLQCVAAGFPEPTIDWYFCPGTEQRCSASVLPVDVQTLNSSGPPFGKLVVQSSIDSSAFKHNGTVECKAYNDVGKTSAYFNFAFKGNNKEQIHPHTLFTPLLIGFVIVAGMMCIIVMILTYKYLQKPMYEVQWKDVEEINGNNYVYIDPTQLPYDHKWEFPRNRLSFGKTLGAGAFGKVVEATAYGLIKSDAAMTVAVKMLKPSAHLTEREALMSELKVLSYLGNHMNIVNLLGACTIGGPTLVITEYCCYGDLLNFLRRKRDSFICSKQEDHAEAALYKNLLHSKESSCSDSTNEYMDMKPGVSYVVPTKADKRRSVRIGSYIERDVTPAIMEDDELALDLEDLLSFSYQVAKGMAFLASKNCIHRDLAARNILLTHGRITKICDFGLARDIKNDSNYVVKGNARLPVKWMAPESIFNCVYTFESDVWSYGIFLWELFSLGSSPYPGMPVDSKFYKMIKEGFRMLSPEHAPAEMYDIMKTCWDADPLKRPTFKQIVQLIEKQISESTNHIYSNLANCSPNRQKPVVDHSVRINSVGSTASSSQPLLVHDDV

Sequence of SMYD2 (Q9NRG4 whole entry): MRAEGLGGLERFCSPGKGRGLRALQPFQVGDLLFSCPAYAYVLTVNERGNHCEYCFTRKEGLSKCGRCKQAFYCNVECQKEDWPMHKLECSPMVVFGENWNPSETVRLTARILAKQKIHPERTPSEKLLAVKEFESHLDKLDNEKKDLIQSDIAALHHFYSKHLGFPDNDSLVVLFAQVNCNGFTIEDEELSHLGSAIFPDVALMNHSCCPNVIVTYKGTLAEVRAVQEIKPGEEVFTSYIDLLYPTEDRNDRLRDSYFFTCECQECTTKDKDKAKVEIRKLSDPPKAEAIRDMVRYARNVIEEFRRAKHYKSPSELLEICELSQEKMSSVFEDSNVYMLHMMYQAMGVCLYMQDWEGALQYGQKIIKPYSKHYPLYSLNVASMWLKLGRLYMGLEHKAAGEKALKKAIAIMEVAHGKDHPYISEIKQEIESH
T11 sequence (P19784 whole entry): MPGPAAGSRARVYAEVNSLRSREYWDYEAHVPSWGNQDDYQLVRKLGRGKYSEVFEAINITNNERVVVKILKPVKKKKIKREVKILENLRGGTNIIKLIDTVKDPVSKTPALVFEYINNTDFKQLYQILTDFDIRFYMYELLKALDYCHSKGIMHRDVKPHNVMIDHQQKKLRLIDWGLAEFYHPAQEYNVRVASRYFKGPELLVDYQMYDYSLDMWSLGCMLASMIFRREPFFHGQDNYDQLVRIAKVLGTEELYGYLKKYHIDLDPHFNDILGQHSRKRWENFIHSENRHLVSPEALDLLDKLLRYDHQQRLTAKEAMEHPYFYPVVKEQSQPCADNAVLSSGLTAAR
T39 sequence (P11309 whole entry): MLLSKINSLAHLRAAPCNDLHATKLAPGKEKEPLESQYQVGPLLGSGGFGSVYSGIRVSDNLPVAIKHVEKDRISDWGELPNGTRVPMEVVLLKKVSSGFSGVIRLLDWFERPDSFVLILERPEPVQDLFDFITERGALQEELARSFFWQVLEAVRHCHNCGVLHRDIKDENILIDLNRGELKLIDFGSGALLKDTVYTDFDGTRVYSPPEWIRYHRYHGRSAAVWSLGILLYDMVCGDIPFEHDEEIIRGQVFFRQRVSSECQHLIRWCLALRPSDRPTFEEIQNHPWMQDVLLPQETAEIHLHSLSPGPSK
T8 sequence (P49841 whole entry): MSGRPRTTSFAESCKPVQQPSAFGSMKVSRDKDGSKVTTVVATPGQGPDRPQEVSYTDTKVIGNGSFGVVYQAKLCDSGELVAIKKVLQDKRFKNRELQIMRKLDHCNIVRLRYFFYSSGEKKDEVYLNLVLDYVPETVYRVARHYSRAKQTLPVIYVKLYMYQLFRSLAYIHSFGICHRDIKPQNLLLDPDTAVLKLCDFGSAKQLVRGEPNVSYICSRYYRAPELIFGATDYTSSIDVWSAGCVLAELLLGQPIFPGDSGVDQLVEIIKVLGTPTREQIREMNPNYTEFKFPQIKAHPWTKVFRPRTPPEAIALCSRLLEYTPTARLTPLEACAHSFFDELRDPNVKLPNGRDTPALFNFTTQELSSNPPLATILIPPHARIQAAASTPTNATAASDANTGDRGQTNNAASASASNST
T30 sequence (Q96Q40 whole entry): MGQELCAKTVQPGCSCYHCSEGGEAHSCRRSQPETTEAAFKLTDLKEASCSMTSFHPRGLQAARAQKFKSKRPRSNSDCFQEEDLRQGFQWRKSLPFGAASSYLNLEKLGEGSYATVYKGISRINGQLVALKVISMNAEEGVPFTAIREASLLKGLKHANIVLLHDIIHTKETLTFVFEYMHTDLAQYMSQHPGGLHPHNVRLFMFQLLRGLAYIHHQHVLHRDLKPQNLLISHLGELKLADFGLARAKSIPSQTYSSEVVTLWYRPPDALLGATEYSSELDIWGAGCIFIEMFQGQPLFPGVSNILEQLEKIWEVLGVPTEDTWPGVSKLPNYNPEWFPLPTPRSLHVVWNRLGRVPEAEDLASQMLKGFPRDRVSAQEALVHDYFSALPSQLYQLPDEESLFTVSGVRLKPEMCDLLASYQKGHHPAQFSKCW
T14 sequence (Q9Y5S2 whole entry): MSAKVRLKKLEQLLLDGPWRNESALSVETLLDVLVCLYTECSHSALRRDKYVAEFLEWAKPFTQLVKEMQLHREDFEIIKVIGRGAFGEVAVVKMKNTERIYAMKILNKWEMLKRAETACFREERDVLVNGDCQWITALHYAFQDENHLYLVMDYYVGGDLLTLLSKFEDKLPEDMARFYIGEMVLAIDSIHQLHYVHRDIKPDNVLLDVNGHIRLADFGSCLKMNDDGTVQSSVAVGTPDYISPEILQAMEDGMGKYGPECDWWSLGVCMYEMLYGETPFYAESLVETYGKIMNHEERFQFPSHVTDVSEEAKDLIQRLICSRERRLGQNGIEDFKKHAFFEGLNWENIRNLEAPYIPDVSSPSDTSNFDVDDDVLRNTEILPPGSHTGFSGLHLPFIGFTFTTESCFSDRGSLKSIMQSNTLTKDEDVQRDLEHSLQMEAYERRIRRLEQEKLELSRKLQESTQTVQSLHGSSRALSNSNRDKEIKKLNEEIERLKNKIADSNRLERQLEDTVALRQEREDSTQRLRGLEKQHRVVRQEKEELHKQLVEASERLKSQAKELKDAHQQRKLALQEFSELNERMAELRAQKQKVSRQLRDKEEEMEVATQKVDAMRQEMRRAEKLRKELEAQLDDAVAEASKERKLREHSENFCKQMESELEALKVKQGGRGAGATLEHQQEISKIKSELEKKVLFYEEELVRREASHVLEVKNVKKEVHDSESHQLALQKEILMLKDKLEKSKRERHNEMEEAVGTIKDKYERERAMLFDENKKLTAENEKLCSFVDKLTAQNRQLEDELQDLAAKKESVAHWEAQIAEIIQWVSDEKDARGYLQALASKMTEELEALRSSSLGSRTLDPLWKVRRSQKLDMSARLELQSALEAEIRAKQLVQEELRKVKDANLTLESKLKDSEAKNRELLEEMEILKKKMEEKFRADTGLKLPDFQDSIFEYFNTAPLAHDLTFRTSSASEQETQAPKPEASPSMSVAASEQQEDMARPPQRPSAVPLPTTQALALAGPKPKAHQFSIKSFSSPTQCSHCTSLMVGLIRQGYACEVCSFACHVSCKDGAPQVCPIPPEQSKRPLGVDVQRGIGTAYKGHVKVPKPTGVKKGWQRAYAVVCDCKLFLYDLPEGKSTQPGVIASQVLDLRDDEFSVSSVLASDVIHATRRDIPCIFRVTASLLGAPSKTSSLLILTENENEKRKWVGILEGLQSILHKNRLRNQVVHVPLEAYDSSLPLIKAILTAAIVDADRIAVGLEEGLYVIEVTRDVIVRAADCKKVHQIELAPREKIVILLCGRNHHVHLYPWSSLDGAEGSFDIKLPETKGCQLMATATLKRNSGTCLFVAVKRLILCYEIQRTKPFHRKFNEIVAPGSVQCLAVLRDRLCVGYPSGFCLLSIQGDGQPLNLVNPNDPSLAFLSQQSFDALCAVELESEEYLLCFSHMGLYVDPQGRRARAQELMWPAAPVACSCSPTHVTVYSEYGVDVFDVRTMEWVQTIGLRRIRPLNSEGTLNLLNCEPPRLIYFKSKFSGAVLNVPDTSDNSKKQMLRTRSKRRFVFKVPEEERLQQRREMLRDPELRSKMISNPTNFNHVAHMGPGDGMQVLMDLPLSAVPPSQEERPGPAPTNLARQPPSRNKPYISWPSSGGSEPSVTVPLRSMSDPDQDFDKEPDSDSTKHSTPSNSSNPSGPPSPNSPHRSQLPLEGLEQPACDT
T1 sequence (P50613 whole entry): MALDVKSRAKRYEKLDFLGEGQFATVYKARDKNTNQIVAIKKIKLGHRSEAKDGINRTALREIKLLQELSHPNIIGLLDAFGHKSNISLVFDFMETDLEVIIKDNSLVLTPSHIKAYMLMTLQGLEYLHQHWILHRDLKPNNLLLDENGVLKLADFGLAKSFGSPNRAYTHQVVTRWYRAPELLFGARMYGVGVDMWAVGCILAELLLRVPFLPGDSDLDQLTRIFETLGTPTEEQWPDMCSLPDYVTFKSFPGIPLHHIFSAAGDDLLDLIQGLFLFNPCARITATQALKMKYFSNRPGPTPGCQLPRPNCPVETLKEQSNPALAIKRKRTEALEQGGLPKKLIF

CCN(C(=O)CO)[C@H]1CN(/C(=N\C#N)Nc2cccc(OC(F)F)c2)N=C1c1ccc(Cl)c(Cl)c1 [(S)-4]
remaining binding at 1 µM [1]: 98%
remaining binding at 1 µM [2]: 100%
remaining binding at 1 µM [3]: 100%
remaining binding at 1 µM [4]: 73%
remaining binding at 1 µM [5]: 77%
remaining binding at 1 µM [6]: 100%
remaining binding at 1 µM [7]: 93%
remaining binding at 1 µM [8]: 88%
remaining binding at 1 µM [9]: 92%
remaining binding at 1 µM [10]: 88%
remaining binding at 1 µM [11]: 56%
remaining binding at 1 µM [12]: 100%
remaining binding at 1 µM [13]: 76%
remaining binding at 1 µM [14]: 100%
remaining binding at 1 µM [15]: 100%
remaining binding at 1 µM [16]: 100%
remaining binding at 1 µM [17]: 77%
remaining binding at 1 µM [18]: 91%
remaining binding at 1 µM [19]: 90%
remaining binding at 1 µM [20]: 100%
remaining binding at 1 µM [21]: 100%
remaining binding at 1 µM [22]: 94%
remaining binding at 1 µM [23]: 100%
remaining binding at 1 µM [24]: 87%
remaining binding at 1 µM [25]: 84%
remaining binding at 1 µM [26]: 100%
AHNAK methylation (Western blot) [27]: specifically reduced methylation of AHNAK; also recorded: inhibits concentration dependent
remaining binding at 1 µM [28]: 100%
remaining binding at 1 µM [29]: 85%
remaining binding at 1 µM [30]: 100%
remaining binding at 1 µM [31]: 100%
remaining binding at 1 µM [32]: 99%
remaining binding at 1 µM [33]: 75%
remaining binding at 1 µM [34]: 100%
remaining binding at 1 µM [35]: 88%
remaining binding at 1 µM [36]: 66%
remaining binding at 1 µM [37]: 97%
remaining binding at 1 µM [38]: 100%
remaining binding at 1 µM [39]: 85%
remaining binding at 1 µM [40]: 82%
remaining binding at 1 µM [41]: 99%
